According to PubChem BioAssay AID330 (DTP/NCI, 2004):
“And” between values parts separate entries of the source, which are not always exact repeats. Equal values may be shown once. Toxic doses and inconclusive results are not listed.

Test system: P388 leukemia ip, CD2F1 mice, survival T/C
Experiment: NCI In Vivo Anticancer Drug Screen. Data for tumor model P388 Leukemia (intraperitoneal) in CD2F1 (CDF1) mice
Details: endpoint: median survival time, higher = longer survival
Procedure, shortened: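 Mice carrying the transplanted tumor received test compound or vehicle. Survival was recorded in each group, and the value is the treated-group measurement divided by that of the vehicle-treated control group.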

[1] = dose: 100.0 mg/kg/injection, schedule: Q04DX003 (ip), vehicle: saline with Tween-80
[2] = dose: 200.0 mg/kg/injection, schedule: Q04DX003 (ip), vehicle: saline with Tween-80
[3] = dose: 400.0 mg/kg/injection, schedule: Q04DX003 (ip), vehicle: saline with Tween-80
[4] = dose: 50.0 mg/kg/injection, schedule: Q01DX005 (ip), vehicle: Klucel (hydroxypropylcellulose) (HPC)
[5] = dose: 100.0 mg/kg/injection, schedule: Q01DX005 (ip), vehicle: Klucel (hydroxypropylcellulose) (HPC)
[6] = dose: 200.0 mg/kg/injection, schedule: Q01DX005 (ip), vehicle: Klucel (hydroxypropylcellulose) (HPC)
[7] = dose: 50.0 mg/kg/injection, schedule: Q04DX003 (ip), vehicle: saline with Tween-80
[8] = dose: 50.0 mg/kg/injection, schedule: Q01DX009 (ip), vehicle: Klucel (hydroxypropylcellulose) (HPC)
[9] = dose: 100.0 mg/kg/injection, schedule: Q01DX009 (ip), vehicle: Klucel (hydroxypropylcellulose) (HPC)
[10] = dose: 200.0 mg/kg/injection, schedule: Q01DX009 (ip), vehicle: Klucel (hydroxypropylcellulose) (HPC)
[11] = dose: 12.5 mg/kg/injection, schedule: Q01DX009 (ip), vehicle: Klucel (hydroxypropylcellulose) (HPC)
[12] = dose: 25.0 mg/kg/injection, schedule: Q01DX009 (ip), vehicle: Klucel (hydroxypropylcellulose) (HPC)
[13] = dose: 100.0 mg/kg/injection, schedule: Q01DX009 (ip), vehicle: saline with Tween-80
[14] = dose: 200.0 mg/kg/injection, schedule: Q01DX009 (ip), vehicle: saline with Tween-80

## Cc1cccc(Cl)c1NC(=O)CS
[1]
  T/C: 100 % of control
[2]
  T/C: 104 % of control
[3]
  T/C: 100 % of control

## CCOP(=O)(Nc1c(Cl)cc2c(c1Cl)Cc1cc([N+](=O)[O-])ccc1-2)OCC
[4]
  T/C: 92 % of control
[5]
  T/C: 88 % of control
[6]
  T/C: 88 % of control

## COc1cccc2c1C(=O)c1c(O)c3c(c(O)c1C2=O)C[C@@](O)(C(=O)CO)C[C@@H]3OC1CC(N)CC(C)O1 (stereo partly specified)
dose: 0.1 mg/kg/injection, schedule: Q01DX009 (ip), vehicle: water
  T/C: 157 % of control
dose: 0.2 mg/kg/injection, schedule: Q01DX009 (ip), vehicle: water
  T/C: 154 % of control and 157 % of control
dose: 0.32 mg/kg/injection, schedule: Q01DX009 (ip), vehicle: saline
  T/C: 166 % of control
dose: 0.39 mg/kg/injection, schedule: Q01DX009 (ip), vehicle: water
  T/C: 173 % of control and 186 % of control
dose: 0.54 mg/kg/injection, schedule: Q01DX009 (ip), vehicle: saline
  T/C: 191 % of control
dose: 0.78 mg/kg/injection, schedule: Q01DX009 (ip), vehicle: water
  T/C: 185 % of control and 280 % of control
dose: 0.9 mg/kg/injection, schedule: Q01DX009 (ip), vehicle: saline
  T/C: 314 % of control
dose: 1.5 mg/kg/injection, schedule: Q01DX009 (ip), vehicle: saline
  T/C: 201 % of control
dose: 1.56 mg/kg/injection, schedule: Q01DX009 (ip), vehicle: water
  T/C: 157 % of control and 226 % of control and 89 % of control
dose: 1.8 mg/kg/injection, schedule: Q04DX003 (ip), vehicle: saline
  T/C: 200 % of control
dose: 3.0 mg/kg/injection, schedule: Q04DX003 (ip), vehicle: saline
  T/C: 154 % of control and 275 % of control
dose: 3.13 mg/kg/injection, schedule: Q04DX003 (ip), vehicle: water
  T/C: 158 % of control
dose: 12.5 mg/kg/injection, schedule: Q04DX003 (ip), vehicle: water
  T/C: 103 % of control

## S=c1[nH]nc(-c2ccccc2)n1C1CCCCC1
[7]
  T/C: 97 % of control
[1]
  T/C: 100 % of control
[2]
  T/C: 93 % of control

## COc1ccc(C(C)=O)cc1CS/C(=N/S(=O)(=O)c1ccccc1)Nc1cccc(Cl)c1Cl
[8]
  T/C: 101 % of control
[9]
  T/C: 101 % of control
[10]
  T/C: 98 % of control

## CC(Nc1ncnc2c1CCc1ccccc1-2)C(=O)O (stereo unspecified)
dose: 100.0 mg/kg/injection, schedule: Q04DX002 (ip), vehicle: saline with Tween-80
  T/C: 100 % of control
dose: 200.0 mg/kg/injection, schedule: Q04DX002 (ip), vehicle: saline with Tween-80
  T/C: 94 % of control

## Cc1cc(NCCCCNCCCNc2cc(C)nc3cc(N)ccc23)c2ccc(N)cc2n1
dose: 12.5 mg/kg/injection, schedule: Q01DX009 (ip), vehicle: other
  T/C: 150 % of control
dose: 25.0 mg/kg/injection, schedule: Q01DX009 (ip), vehicle: other
  T/C: 175 % of control

## Cc1ccc(C2(COC(=O)c3ccccc3)CO2)c(OC(=O)C(C)C)c1 (stereo unspecified)
[11]
  T/C: 99 % of control
[12]
  T/C: 95 % of control
[8]
  T/C: 107 % of control
[9]
  T/C: 105 % of control

## CCOC(=O)C1=C(C)OC(N)=C(C#N)C12C(=O)N(C)C(=O)c1ccccc12 (stereo unspecified)
[4]
  T/C: 101 % of control
[5]
  T/C: 103 % of control
[6]
  T/C: 96 % of control

## CC(C)c1ccc(C(O)C2CC2)cc1 (stereo unspecified)
[7]
  T/C: 109 % of control
[1]
  T/C: 95 % of control

## Cc1cc(C=C2C(=O)c3ccccc3C2=O)cc(C(C)(C)C)c1O
dose: 100.0 mg/kg/injection, schedule: Q04DX002 (ip), vehicle: saline
  T/C: 100 % of control
dose: 200.0 mg/kg/injection, schedule: Q04DX002 (ip), vehicle: saline
  T/C: 100 % of control
dose: 400.0 mg/kg/injection, schedule: Q04DX002 (ip), vehicle: saline
  T/C: 97 % of control

## C[N+](C)(Cn1nc(Cl)c2cc([N+](=O)[O-])ccc21)Cn1nc(Cl)c2cc([N+](=O)[O-])ccc21
[7]
  T/C: 93 % of control
[2]
  T/C: 88 % of control

## CN(C)c1ccc2c(c1)Sc1cc(N(C)C)ccc1N2C(=O)c1ccccc1
[11]
  T/C: 105 % of control
[12]
  T/C: 103 % of control
[8]
  T/C: 102 % of control
[9]
  T/C: 98 % of control

## CN=C(NC#N)NCCSCc1ccc2ccccc2n1
dose: 50.0 mg/kg/injection, schedule: Q01DX005 (ip), vehicle: distilled water + Tween-80 + alcohol
  T/C: 115 % of control
dose: 100.0 mg/kg/injection, schedule: Q01DX005 (ip), vehicle: distilled water + Tween-80 + alcohol
  T/C: 94 % of control

## C/C(Br)=C(\C(=O)O)S(=O)(=O)O
dose: 5.0 mg/kg/injection, schedule: Q01DX009 (ip), vehicle: saline with Tween-80
  T/C: 106 % of control
dose: 10.0 mg/kg/injection, schedule: Q01DX009 (ip), vehicle: saline with Tween-80
  T/C: 97 % of control
dose: 20.0 mg/kg/injection, schedule: Q01DX009 (ip), vehicle: saline with Tween-80
  T/C: 99 % of control

## Cc1cc(C2=NCC(C)S2)ccc1OCCSCCOc1ccc(C2=NCC(C)S2)cc1C (stereo unspecified)
dose: 12.5 mg/kg/injection, schedule: Q01DX009 (ip), vehicle: saline with Tween-80
  T/C: 92 % of control
dose: 25.0 mg/kg/injection, schedule: Q01DX009 (ip), vehicle: saline with Tween-80
  T/C: 92 % of control

## CC(C)N1CC(CCN2CCOCC2)C(c2ccccc2)(C2CCCC2)C1=O (stereo unspecified)
[8]
  T/C: 106 % of control
[9]
  T/C: 101 % of control
[10]
  T/C: 108 % of control

## C1CNNCCNN1
dose: 50.0 mg/kg/injection, schedule: Q01DX009 (ip), vehicle: saline
  T/C: 112 % of control
dose: 100.0 mg/kg/injection, schedule: Q01DX009 (ip), vehicle: saline
  T/C: 106 % of control and 108 % of control and 90 % of control
dose: 200.0 mg/kg/injection, schedule: Q01DX009 (ip), vehicle: saline
  T/C: 109 % of control and 115 % of control and 89 % of control
dose: 400.0 mg/kg/injection, schedule: Q01DX009 (ip), vehicle: saline
  T/C: 112 % of control and 120 % of control and 93 % of control
dose: 800.0 mg/kg/injection, schedule: Q01DX009 (ip), vehicle: saline
  T/C: 121 % of control

## CC(C)n1c(=S)[nH]c2ccccc2c1=O
[13]
  T/C: 90 % of control
[1]
  T/C: 95 % of control
[14]
  T/C: 90 % of control
[2]
  T/C: 95 % of control
dose: 400.0 mg/kg/injection, schedule: Q01DX009 (ip), vehicle: saline with Tween-80
  T/C: 95 % of control
[3]
  T/C: 91 % of control

## CCC1(O)C(=O)OCc2c1cc1n(c2=O)Cc2ccccc2-1 (stereo unspecified)
dose: 100.0 mg/kg/injection, schedule: Q01DX001 (ip), vehicle: saline with Tween-80
  T/C: 96 % of control
dose: 200.0 mg/kg/injection, schedule: Q01DX001 (ip), vehicle: saline with Tween-80
  T/C: 90 % of control
dose: 400.0 mg/kg/injection, schedule: Q01DX001 (ip), vehicle: saline with Tween-80
  T/C: 92 % of control

## COc1ccc(-c2cc(-c3ccccc3)c(-c3ccccc3)nn2)cc1CN1CCOCC1
dose: 50.0 mg/kg/injection, schedule: Q01DX009 (ip), vehicle: saline with Tween-80
  T/C: 99 % of control
[13]
  T/C: 100 % of control
[14]
  T/C: 95 % of control

## COC(=O)C1CC2(C(=O)O)CC(C(=O)O)(CC(C(=O)OC)C2=O)C1=O (stereo unspecified)
[7]
  T/C: 101 % of control
[1]
  T/C: 101 % of control
[2]
  T/C: 104 % of control

## C/C(=C/c1cc2c(cc1Br)OCO2)[N+](=O)[O-]
[1]
  T/C: 108 % of control
[2]
  T/C: 118 % of control

## CCOc1ccccc1NC(=S)Nc1ccccc1C(F)(F)F
[8]
  T/C: 109 % of control
[9]
  T/C: 100 % of control
[10]
  T/C: 100 % of control

## CC(C)NC(=O)OCc1c(COC(=O)NC(C)C)c(-c2ccc(F)c(F)c2)n2c1CCC2
dose: 3.13 mg/kg/injection, schedule: Q01DX009 (ip), vehicle: distilled water + Tween-80
  T/C: 151 % of control
dose: 6.25 mg/kg/injection, schedule: Q01DX009 (ip), vehicle: distilled water + Tween-80
  T/C: 160 % of control
dose: 12.5 mg/kg/injection, schedule: Q01DX009 (ip), vehicle: distilled water + Tween-80
  T/C: 172 % of control and 178 % of control
dose: 25.0 mg/kg/injection, schedule: Q01DX009 (ip), vehicle: distilled water + Tween-80
  T/C: 123 % of control and 211 % of control
dose: 50.0 mg/kg/injection, schedule: Q01DX009 (ip), vehicle: distilled water + Tween-80
  T/C: 109 % of control and 92 % of control

## COc1ccc(/C=C/C(C)=N/NC(N)=S)cc1OC
dose: 12.5 mg/kg/injection, schedule: Q01DX005 (ip), vehicle: saline with Tween-80
  T/C: 104 % of control
dose: 25.0 mg/kg/injection, schedule: Q01DX005 (ip), vehicle: saline with Tween-80
  T/C: 106 % of control
dose: 50.0 mg/kg/injection, schedule: Q01DX005 (ip), vehicle: saline with Tween-80
  T/C: 105 % of control and 112 % of control
dose: 100.0 mg/kg/injection, schedule: Q01DX005 (ip), vehicle: saline with Tween-80
  T/C: 93 % of control
